Source: PubChem BioAssay (NCI)
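Exposure lasted 48 hours, with cells grown in 96-well plates and compounds tested at five concentrations. At the GI50, growth is halved. TGI denotes the concentration required for complete inhibition of growth.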

Tests used:
Assay in all cases: NCI-60 cell line screen, 48 h
HOP-92 NSCLC = system: HOP-92 NSCLC
SK-MEL-5 melanoma = system: SK-MEL-5 melanoma
SN12C renal = system: SN12C renal
KM12 colon = system: KM12 colon
SF-268 CNS = system: SF-268 CNS
HCC-2998 colon = system: HCC-2998 colon
UO-31 renal = system: UO-31 renal
HT29 colon = system: HT29 colon
COLO 205 colon = system: COLO 205 colon
SW-620 colon = system: SW-620 colon
A498 renal = system: A498 renal
T-47D breast = system: T-47D breast
NCI-H522 lung = system: NCI-H522 lung
NCI-H23 lung = system: NCI-H23 lung
CCRF-CEM leukemia = system: CCRF-CEM leukemia
M14 melanoma = system: M14 melanoma
SR leukemia = system: SR leukemia
TK-10 renal = system: TK-10 renal
MDA-MB-231 breast = system: MDA-MB-231 breast
U251 CNS = system: U251 CNS
A549 NSCLC = system: A549 NSCLC
EKVX NSCLC = system: EKVX NSCLC
SNB-75 CNS = system: SNB-75 CNS
CAKI-1 renal = system: CAKI-1 renal
OVCAR-4 ovarian = system: OVCAR-4 ovarian
OVCAR-5 ovarian = system: OVCAR-5 ovarian
K-562 leukemia = system: K-562 leukemia
786-0 renal = system: 786-0 renal
RPMI-8226 leukemia = system: RPMI-8226 leukemia
SK-MEL-28 melanoma = system: SK-MEL-28 melanoma
MOLT-4 leukemia = system: MOLT-4 leukemia
NCI-H226 lung = system: NCI-H226 lung
MCF7 breast = system: MCF7 breast
NCI/ADR-RES ovarian = system: NCI/ADR-RES ovarian
SK-MEL-2 melanoma = system: SK-MEL-2 melanoma
UACC-62 melanoma = system: UACC-62 melanoma
DU-145 prostate = system: DU-145 prostate
ACHN renal = system: ACHN renal
SF-295 CNS = system: SF-295 CNS
HCT-116 colon = system: HCT-116 colon
OVCAR-8 ovarian = system: OVCAR-8 ovarian
IGROV1 ovarian = system: IGROV1 ovarian
SK-OV-3 ovarian = system: SK-OV-3 ovarian
LOX IMVI melanoma = system: LOX IMVI melanoma
HCT-15 colon = system: HCT-15 colon
NCI-H460 lung = system: NCI-H460 lung
RXF 393 renal = system: RXF 393 renal
MDA-MB-435 = system: MDA-MB-435
HOP-62 NSCLC = system: HOP-62 NSCLC
SF-539 CNS = system: SF-539 CNS
SNB-19 CNS = system: SNB-19 CNS
HS 578T breast = system: HS 578T breast
BT-549 breast = system: BT-549 breast
PC-3 prostate = system: PC-3 prostate
OVCAR-3 ovarian = system: OVCAR-3 ovarian
HL-60(TB) leukemia = system: HL-60(TB) leukemia
UACC-257 melanoma = system: UACC-257 melanoma

SMILES: O=S(=O)(Nc1ccc(Br)c(Cl)c1)c1ccc(-c2cnc(C3CC3)o2)cc1
- GI50 (HOP-92 NSCLC): 487 nM
- TGI (HOP-92 NSCLC): 8720 nM
- GI50 (SK-MEL-5 melanoma): 602 nM
- TGI (SK-MEL-5 melanoma): 13900 nM
- GI50 (SN12C renal): 1270 nM
- TGI (SN12C renal): 16000 nM
- GI50 (KM12 colon): 445 nM
- TGI (KM12 colon): 14900 nM
- GI50 (SF-268 CNS): 1560 nM
- TGI (SF-268 CNS): 23500 nM
- GI50 (HCC-2998 colon): 1610 nM
- TGI (HCC-2998 colon): 11600 nM
- GI50 (UO-31 renal): 1110 nM
- TGI (UO-31 renal): 13600 nM
- GI50 (HT29 colon): 356 nM
- TGI (HT29 colon): 5230 nM
- GI50 (COLO 205 colon): 765 nM
- TGI (COLO 205 colon): 11300 nM
- GI50 (SW-620 colon): 392 nM
- TGI (SW-620 colon): 15400 nM
- GI50 (A498 renal): 189 nM
- TGI (A498 renal): 845 nM
- GI50 (T-47D breast): 437 nM
- TGI (T-47D breast): 21100 nM
- GI50 (NCI-H522 lung): 262 nM
- TGI (NCI-H522 lung): 10700 nM
- GI50 (NCI-H23 lung): 1270 nM
- TGI (NCI-H23 lung): 15600 nM
- GI50 (CCRF-CEM leukemia): 411 nM
- TGI (CCRF-CEM leukemia): > 45900 nM
- GI50 (M14 melanoma): 458 nM
- TGI (M14 melanoma): 14100 nM
- GI50 (SR leukemia): 380 nM
- TGI (SR leukemia): > 49400 nM
- GI50 (TK-10 renal): 2890 nM
- TGI (TK-10 renal): 20600 nM
- GI50 (MDA-MB-231 breast): 1910 nM
- TGI (MDA-MB-231 breast): 16400 nM
- GI50 (U251 CNS): 507 nM
- TGI (U251 CNS): 15400 nM
- GI50 (A549 NSCLC): 789 nM
- TGI (A549 NSCLC): 18300 nM
- GI50 (EKVX NSCLC): 2070 nM
- TGI (EKVX NSCLC): 21000 nM
- GI50 (SNB-75 CNS): 196 nM
- TGI (SNB-75 CNS): 662 nM
- GI50 (CAKI-1 renal): 431 nM
- TGI (CAKI-1 renal): 16400 nM
- GI50 (OVCAR-4 ovarian): 2670 nM
- TGI (OVCAR-4 ovarian): 21900 nM
- GI50 (OVCAR-5 ovarian): 1970 nM
- TGI (OVCAR-5 ovarian): 14100 nM
- GI50 (K-562 leukemia): 323 nM
- TGI (K-562 leukemia): > 100000 nM
- GI50 (786-0 renal): 574 nM
- TGI (786-0 renal): 17900 nM
- GI50 (RPMI-8226 leukemia): 585 nM
- TGI (RPMI-8226 leukemia): 64800 nM
- GI50 (SK-MEL-28 melanoma): 4350 nM
- TGI (SK-MEL-28 melanoma): 22000 nM
- GI50 (MOLT-4 leukemia): 688 nM
- TGI (MOLT-4 leukemia): > 50400 nM
- GI50 (NCI-H226 lung): 1230 nM
- TGI (NCI-H226 lung): 18800 nM
- GI50 (MCF7 breast): 339 nM
- TGI (MCF7 breast): 16000 nM
- GI50 (NCI/ADR-RES ovarian): 430 nM
- TGI (NCI/ADR-RES ovarian): 6860 nM
- GI50 (SK-MEL-2 melanoma): 2450 nM
- TGI (SK-MEL-2 melanoma): 24000 nM
- GI50 (UACC-62 melanoma): 372 nM
- TGI (UACC-62 melanoma): 13600 nM
- GI50 (DU-145 prostate): 1520 nM
- TGI (DU-145 prostate): 17600 nM
- GI50 (ACHN renal): 562 nM
- TGI (ACHN renal): 18200 nM
- GI50 (SF-295 CNS): 343 nM
- TGI (SF-295 CNS): 3410 nM
- GI50 (HCT-116 colon): 432 nM
- TGI (HCT-116 colon): 13600 nM
- GI50 (OVCAR-8 ovarian): 1500 nM
- TGI (OVCAR-8 ovarian): 21400 nM
- GI50 (IGROV1 ovarian): 577 nM
- TGI (IGROV1 ovarian): 14800 nM
- GI50 (SK-OV-3 ovarian): 1490 nM
- TGI (SK-OV-3 ovarian): 24200 nM
- GI50 (LOX IMVI melanoma): 565 nM
- TGI (LOX IMVI melanoma): 16200 nM
- GI50 (HCT-15 colon): 445 nM
- TGI (HCT-15 colon): 13700 nM
- GI50 (NCI-H460 lung): 415 nM
- TGI (NCI-H460 lung): 12600 nM
- GI50 (RXF 393 renal): 348 nM
- TGI (RXF 393 renal): 3480 nM
- GI50 (MDA-MB-435): 177 nM
- TGI (MDA-MB-435): 2450 nM
- GI50 (HOP-62 NSCLC): 580 nM
- TGI (HOP-62 NSCLC): 19000 nM
- GI50 (SF-539 CNS): 374 nM
- TGI (SF-539 CNS): 5080 nM
- GI50 (SNB-19 CNS): 517 nM
- TGI (SNB-19 CNS): 16200 nM
- GI50 (HS 578T breast): 351 nM
- TGI (HS 578T breast): 18300 nM
- GI50 (BT-549 breast): 682 nM
- TGI (BT-549 breast): 17800 nM
- GI50 (PC-3 prostate): 493 nM
- TGI (PC-3 prostate): 14800 nM
- GI50 (OVCAR-3 ovarian): 370 nM
- TGI (OVCAR-3 ovarian): 7320 nM
- GI50 (HL-60(TB) leukemia): 303 nM
- TGI (HL-60(TB) leukemia): 4960 nM
- GI50 (UACC-257 melanoma): 2080 nM
- TGI (UACC-257 melanoma): 25900 nM
